# Measurements published in patent US5843449A, “Proteins and novel peptides derived from autoantigen for use in immunotherapy of autoimmune diseases” (Akzo Nobel N.V., priority 1996, dated 1998).
# Read-outs that look alike come from different tables or passages of the source. Residues, ends and D or L forms follow the SMILES beside them.
# Columns and labels:
# [1] = tested on: PBMC from healthy donors; test: Proliferative responses of PBMC from healthy donors (3H-thymidine); assay type: cell-based, human; details: 10% autologous serum
# Experimental: PBMC's from healthy donors carrying the DR4Dw4 (DRB1*0401) or the DR1 specificity were collected as a control.
# (§1) PBMC obtained from heparinized venous peripheral blood were isolated by standard centrifugation on a Ficoll-Paque gradient. […] Cultures were incubated in a total volume of 210 μl for 7 days at 37° C. in a humidified atmosphere of 5% CO2. Cultures were pulsed during the last 18 hours with 0.25 μCi^3 H-thymidine.
# [2] = tested on: PBMC from RA patients; test: Proliferative responses of PBMC from RA patients (3H-thymidine); assay type: cell-based, human; details: 10% autologous serum
# Experimental: Peripheral blood mononuclear cells (PBMC) from patients who were diagnosed as suffering from RA according to the American Rheumatism Association (ARA) criteria (Arnett et al., Arthritis Rheum. 31:315, 1988) were collected.
# as §1
# [3] = target: DR4Dw14 HLA-DR molecules; test: HLA-DR peptide binding assay (competition with biotinylated marker peptide), DR4Dw14; parameters: species or system human; details: pH = 5, 50 nM biotin-spacer-IHA(307-319)F marker peptide
# [4] = target: T1, DR4Dw4 (DRB1*0401) HLA-DR molecules (Homo sapiens, UniProt P01903+P01911, A100K/A169T/F76Y/I96L/K127E/L162R/M171V/N62H/P40V/Q125Y/R42H/S133A/S149N/S66Y/V115G/V209L/W38E); test: HLA-DR peptide binding assay (competition with biotinylated marker peptide), DR4Dw4; details: pH = 5, 50 nM biotin-spacer-IHA(307-319)F marker peptide
# T1 construct: endogenous in cells; host or cells: BSM, EBV-transformed B-cell line
structure (smiles),measurement,setting,value
CC(C)C[C@H](NC(=O)[C@@H](NC(=O)[C@H](Cc1ccccc1)NC(=O)[C@H](CO)NC(=O)[C@@H](N)CCCNC(=N)N)[C@@H](C)O)C(=O)N[C@@H](C)C(=O)N[C@@H](CO)C(=O)N[C@@H](CO)C(=O)N[C@@H](CCC(=O)O)C(=O)N[C@H](C(=O)NCC(=O)N[C@H](C(=O)NCC(=O)O)C(C)C)[C@@H](C)O [Peptide 2] (H-RSFTLASSETGVG-OH),"Proliferative response, stimulation index (SI)","[1]; healthy donor 155-03 (NR), peptide 10 μg/ml",1
same,"Proliferative response, stimulation index (SI)","[1]; healthy donor 155-03 (NR), peptide 100 μg/ml",1
same,"Proliferative response, stimulation index (SI)","[1]; healthy donor 156-03 (NR), peptide 10 μg/ml",1
same,"Proliferative response, stimulation index (SI)","[1]; healthy donor 156-03 (NR), peptide 100 μg/ml",< 1
same,"Proliferative response, stimulation index (SI)","[1]; healthy donor 157-03 (NR), peptide 10 μg/ml",< 2
same,"Proliferative response, stimulation index (SI)","[1]; healthy donor 157-03 (NR), peptide 100 μg/ml",< 2
same,"Proliferative response, stimulation index (SI)","[1]; healthy donor 157-04 (R), peptide 10 μg/ml",1
same,"Proliferative response, stimulation index (SI)","[1]; healthy donor 157-04 (R), peptide 100 μg/ml",< 1
same,"Proliferative response, stimulation index (SI)","[1]; healthy donor 168-03 (NR), peptide 10 μg/ml",< 1
same,"Proliferative response, stimulation index (SI)","[1]; healthy donor 168-03 (NR), peptide 100 μg/ml",< 1
same,"Proliferative response, stimulation index (SI)","[1]; healthy donor 168.02 (NR), peptide 10 μg/ml",< 2
same,"Proliferative response, stimulation index (SI)","[1]; healthy donor 168.02 (NR), peptide 100 μg/ml",< 1
same,"Proliferative response, stimulation index (SI)","[1]; healthy donor 169-02 (NR), peptide 10 μg/ml",1
same,"Proliferative response, stimulation index (SI)","[1]; healthy donor 169-02 (NR), peptide 100 μg/ml",1
same,"Proliferative response, stimulation index (SI)","[1]; healthy donor 230-01 (NR), peptide 10 μg/ml",1
same,"Proliferative response, stimulation index (SI)","[1]; healthy donor 230-01 (NR), peptide 100 μg/ml",1
same,"Proliferative response, stimulation index (SI)","[1]; healthy donor 235-0 (NR), peptide 10 μg/ml",1
same,"Proliferative response, stimulation index (SI)","[1]; healthy donor 235-0 (NR), peptide 100 μg/ml",< 2
same,"Proliferative response, stimulation index (SI)","[1]; healthy donor 235-01 (NR), peptide 10 μg/ml",< 1
same,"Proliferative response, stimulation index (SI)","[1]; healthy donor 235-01 (NR), peptide 100 μg/ml",< 1
same,"Proliferative response, stimulation index (SI)","[1]; healthy donor 236-01 (NR), peptide 10 μg/ml",1
same,"Proliferative response, stimulation index (SI)","[1]; healthy donor 236-01 (NR), peptide 100 μg/ml",1
same,"Proliferative response, stimulation index (SI)","[1]; healthy donor 237-0 (NR), peptide 10 μg/ml",< 2
same,"Proliferative response, stimulation index (SI)","[1]; healthy donor 237-0 (NR), peptide 100 μg/ml",< 1
same,"Proliferative response, stimulation index (SI)","[1]; healthy donor 237-01 (NR), peptide 10 μg/ml",1
same,"Proliferative response, stimulation index (SI)","[1]; healthy donor 237-01 (NR), peptide 100 μg/ml",1
same,"Proliferative response, stimulation index (SI)","[1]; healthy donor 238-01 (NR), first line so labelled, peptide 10 μg/ml",1
same,"Proliferative response, stimulation index (SI)","[1]; healthy donor 238-01 (NR), first line so labelled, peptide 100 μg/ml",< 1
same,"Proliferative response, stimulation index (SI)","[1]; healthy donor 238-01 (NR), second line so labelled, peptide 10 μg/ml",1
same,"Proliferative response, stimulation index (SI)","[1]; healthy donor 238-01 (NR), second line so labelled, peptide 100 μg/ml",1
same,"Proliferative response, stimulation index (SI)","[1]; healthy donor 241-0 (NR), peptide 10 μg/ml",1
same,"Proliferative response, stimulation index (SI)","[1]; healthy donor 241-0 (NR), peptide 100 μg/ml",< 1
same,"Proliferative response, stimulation index (SI)","[1]; healthy donor 241-01 (R), peptide 10 μg/ml",< 1
same,"Proliferative response, stimulation index (SI)","[1]; healthy donor 241-01 (R), peptide 100 μg/ml",< 1
same,"Proliferative response, stimulation index (SI)","[2]; RA patient 191-03 (HR), disease state IV, peptide 10 μg/l",1
same,"Proliferative response, stimulation index (SI)","[2]; RA patient 191-03 (HR), disease state IV, peptide 100 μg/l",< 2
same,"Proliferative response, stimulation index (SI)","[2]; RA patient 215-0 (HR), disease state III-IV, peptide 25 μg/l",3
same,"Proliferative response, stimulation index (SI)","[2]; RA patient 215-0 (HR), disease state III-IV, peptide 100 μg/l",19
same,"Proliferative response, stimulation index (SI)","[2]; RA patient 240-0 (HR), disease state II-III, peptide 25 μg/l",5
same,"Proliferative response, stimulation index (SI)","[2]; RA patient 240-0 (HR), disease state II-III, peptide 100 μg/l",6
same,"Proliferative response, stimulation index (SI)","[2]; RA patient 242-0 (HR), disease state I, peptide 25 μg/l",4
same,"Proliferative response, stimulation index (SI)","[2]; RA patient 243-0 (R), disease state III, peptide 10 μg/l",1
same,"Proliferative response, stimulation index (SI)","[2]; RA patient 243-0 (R), disease state III, peptide 100 μg/l",6
same,"Proliferative response, stimulation index (SI)","[2]; RA patient 247-0 (R), disease state III, peptide 10 μg/l",1
same,"Proliferative response, stimulation index (SI)","[2]; RA patient 247-0 (R), disease state III, peptide 100 μg/l",2
same,"Proliferative response, stimulation index (SI)","[2]; RA patient 248-0 (R), disease state III, peptide 10 μg/l",1
same,"Proliferative response, stimulation index (SI)","[2]; RA patient 248-0 (R), disease state III, peptide 100 μg/l",1
same,"Proliferative response, stimulation index (SI)","[2]; RA patient 272-0 (HR), disease state III-IV, peptide 10 μg/l",< 1
same,"Proliferative response, stimulation index (SI)","[2]; RA patient 272-0 (HR), disease state III-IV, peptide 100 μg/l",< 1
same,"Proliferative response, stimulation index (SI)","[2]; RA patient 273-0 (HR), disease state IV, peptide 10 μg/l",7
same,"Proliferative response, stimulation index (SI)","[2]; RA patient 273-0 (HR), disease state IV, peptide 100 μg/l",6
same,"Proliferative response, stimulation index (SI)","[2]; RA patient 275-0 (HR), disease state III, peptide 10 μg/l",2
same,"Proliferative response, stimulation index (SI)","[2]; RA patient 275-0 (HR), disease state III, peptide 100 μg/l",9
same,"Proliferative response, stimulation index (SI)","[2]; RA patient 276-0 (HR), disease state IV, burnt out, peptide 10 μg/l",3
same,"Proliferative response, stimulation index (SI)","[2]; RA patient 276-0 (HR), disease state IV, burnt out, peptide 100 μg/l",1
same,"Proliferative response, stimulation index (SI)","[2]; RA patient 280-0 (HR), disease state IV, burnt out, peptide 10 μg/l",1
same,"Proliferative response, stimulation index (SI)","[2]; RA patient 280-0 (HR), disease state IV, burnt out, peptide 100 μg/l",4
same,IC50,"[3]; DOT Blot, densitometer, read-out: ^R IC50, DR4Dw14, DOT Blot",190 nM
same,IC50,"[3]; SDS-PAGE, visual inspection, read-out: ^R IC50, DR4Dw14, SDS-PAGE",200 nM
same,IC50,"[4]; DOT Blot, densitometer, read-out: ^R IC50, DR4Dw4, DOT Blot",80 nM
same,IC50,"[4]; SDS-PAGE, visual inspection, read-out: ^R IC50, DR4Dw4, SDS-PAGE",40 nM
